Test results: publication PMC2816717, “Active Fragments from Pro- and Antiapoptotic BCL-2 Proteins Have Distinct Membrane Behavior Reflecting Their Functional Divergence” (PLoS ONE, 2010)

Columns and labels:
[1] = Langmuir monolayer penetration assay, lipid mixture not singled out (Figure 5); format: physicochemical; conditions: πi 5 mN/m; for final increase of surface pressure πmax (insertion), in words: Figure 5A; for final increase of surface pressure πmax (insertion), in words / initial velocity of surface pressure increase Vi (affinity), in words: peptide 0.2 µM, Hepes pH 7.4, duplicate; for initial velocity of surface pressure increase Vi (affinity), in words: Figure 5B
Description: (§1) For the biophysical characterization of membrane active protein fragments, we have used Langmuir monolayers as in vitro model of lipid membranes. These supramolecular lipid films formed at the air-water interface are attractive membrane models, widely used for studying peptide-lipid interactions, [56], [57]. We have investigated the binding of peptides derived from the central helices of BAX, BCL-xL and BID at physiological pH with model phospholipid monolayers of a composition that imitates mitochondrial membranes. For this purpose we selected fragments encompassing the sequences corresponding to the first or second α-helices of the core hairpins of BAX, BCL-xL and BID, as defined in the water-soluble protein structures, [17], [19]. Because the structures of those proteins in a membrane environment is currently unavailable, for the case of the first hairpin helix of BAX and BCL-xL (α5) we analyzed both a short version (labeled “S”), including only the reported α-helical residues, and a long version (labeled “L”) that extends a few residues beyond the α-helix stretch at both ends. Divergence of the BID sequence precluded unambiguous alignment with the other two proteins and a similar peptide design. Peptides corresponding to the BH3 domain of BAX, BCL-xL and BID were also included in the study. The sequence and some general properties of the peptides analyzed in this study are described in Table 1 and Figure 1). Lipid mixtures of POPC/DOPE (2∶1) and POPC/DOPE/CL (1∶1∶1) were chosen to mimic the MOM and the contact sites between inner and outer mitochondrial membrane (MIM/MOM), respectively. Penetration assays were carried out at constant area by spreading the lipids at the air-buffer interface, compressing the film at πi = […] and then injecting the peptides into the subphase at a concentration of 0.2 µM (see Material and Methods). Subsequent peptide binding results typically in an increase of surface pressure. Thus, the peptide-monolayer interaction can be characterized by measurable kinetic properties, such as the initial velocity of surface pressure increase (Vi), which informs about the affinity of the peptide for the lipid-water interface, and the final increase of surface pressure (πmax), which can be related to the insertion ability of the peptide into the monolayer.
Figure 5 Changes in surface pressure after peptide injection. Peptides were injected underneath POPC/DOPE or POPC/DOPE/CL monolayers at constant area. A. Final increase of surface pressure πmax (mN/m) obtained for the different peptides. The dashed line denotes the threshold (Δπ = 4.8 mN/m) for significant surface pressure variation as determined using BAX-α5S without lipids (see text). B. Initial velocity of surface pressure increase (Vi = Δπ/s).
(§2) Monolayer experiments were performed on a computer-controlled Langmuir film balance (KSV 2000, three multi-compartment system, KSV Instrument Ltd., Finland) working in a symmetrical compression mode and enclosed in an opaque cabinet. The rectangular trough (V = 85 mL ±1 mL, S = 119.25 cm^2) was made of Teflon and the mobile barriers were made in Delrin. The surface pressure, π defined as γ0 – γ, where γ0 is the surface tension of the pure aqueous subphase and γ the surface tension exerted by phospholipids at the subphase surface, was measured by the Wilhelmy's method using a platinum plate with an accuracy of ±0.05 mN/m. The trough was filled with Hepes buffer (pH 7.4), used as subphase and thermostated with a water circulating bath (Lauda E100, LAUDA France, SARL). In all experiments, the subphase temperature was maintained at a constant value of 22.5±0.5°C.
Phospholipid monolayers were formed by deposition of 14 µl of spreading solutions at a clean air/buffer interface by means of a micropipette to reach a final amount of 14 nmol of phospholipids. […]

[2] = system: mitochondria isolated from HEK293T cells; assay: Cytochrome c release assay; format: biochemical
Description: Thus, we tested the ability of the different peptides to induce the release of mitochondrial proteins by incubating them with mitochondria isolated from HEK293T cells, and subsequently assaying the supernatant and pelleted fractions with antibodies for cytochrome c and mitoHSP70. […] On the other hand, incubation of mitochondria with 10 µM BID-α6 induced a slower release, with depletion of the mitochondrial pool of cytochrome c occurring only after 1 hour incubation.
(§3) Figure 7 Cytochrome c release assays. Peptides were incubated with isolated mitochondria for the indicated times (min) and the release of cytochrome c was monitored by Western blotting (IB). MitoHSP70 was used as an equal-loading control for the pellet fraction. Control lanes indicate that in the preparation the MOM is intact and cytochrome c is retained within the intermembrane space. A. Cytochrome c release assays for the first (BAX-α5S, BCLX-α5S, BID-α6) and second helices (BAX-α6, BCLX-α6, BID-α7) of the ‘pore domain’ of BAX, BCL-xL and BID using mitochondria isolated from HEK293T cells. B. Cytochrome c release assays for BAX-α5M and BAX-α5MS using mitochondria isolated from MEF and MEK BAX/BAK -/- double knock-out cells (MEF DKO). C. Cytochrome c release assays for the BH3 peptides.
(§4) Crude mitochondria were prepared from HEK 293T, mouse embryo fibroblast (MEF) or BAX/BAK double knockout MEF cells (MEF-DKO). In brief, cells were mechanically broken using a 2 ml glass/glass Dounce homogenizer (Kontes) (30 strokes). Homogenates were cleared at 1500 g and mitochondria were spun down at 10 000 g. For cytochrome c release assays, 30 µg of crude mitochondria were resuspended at 1 mg/ml in KCl buffer supplemented with succinate (5 mM) and EGTA (0.5 mM). Peptides (2.5, 10 or 25 µM) were added to the samples and incubations were carried out at 30°C under agitation (300 rpm). At the indicated time points, samples were centrifuged (5 min, 10 000 g, 4°C); supernatants and pellets were recovered and analyzed by immunoblotting for Cytochrome c and mitoHsp70.

[3] = system: isolated mitochondria; assay: Cytochrome c release assay, source of mitochondria not stated; format: biochemical; conditions: for effect on isolated mitochondria, in words: summary in Discussion
Description: as §3
Last, we proceeded to perform similar dose-response experiments by measuring cytochrome c release from isolated mitochondria with peptides derived from the BH3 domains of BAX, BID and BCL-xL. […] On the other hand, the BH3 peptides from BAX and BID triggered mitochondrial cytochrome c release, although with markedly less efficiency (starting at 25 µM after 15–30 min of peptide exposure) than BAX-α5, BAX-α6 or BID-α6.
as §4

[4] = Langmuir monolayer penetration assay at constant area; format: physicochemical; conditions: control peptides, Figure S2 legend; unit not given (Δπ elsewhere in mN/m); conditions as Fig. 5: πi 5 mN/m, 0.2 µM
Description: as §1, §2
Phospholipid monolayers were formed by deposition of 14 µl of spreading solutions at a clean air/buffer interface by means of a micropipette to reach a final amount of 14 nmol of phospholipids. After complete evaporation of the solvent (∼15 min), the monolayer was slowly compressed up to a defined lateral pressure (initial surface pressure πi) at a rate of 0.045 nm^2 molecule^−1 min^−1. The value of πi = 5 mN/m was chosen because it lies between the surface pressure set-off and surface pressures (e.g. 30 mN/m, which corresponds to a tightly packed film) where many peptides of the study will not insert. […]

[5] = system: mitochondria isolated from BAX/BAK double knockout mouse embryonic fibroblasts (MEF DKO); assay: Cytochrome c release assay; format: biochemical; conditions: Figure 7B
Description: as §3
Crude mitochondria were prepared from HEK 293T, mouse embryo fibroblast (MEF) or BAX/BAK double knockout MEF cells (MEF-DKO). In brief, cells were mechanically broken using a 2 ml glass/glass Dounce homogenizer (Kontes) (30 strokes). Homogenates were cleared at 1500 g and mitochondria were spun down at 10 000 g. […] At the indicated time points, samples were centrifuged (5 min, 10 000 g, 4°C); supernatants and pellets were recovered and analyzed by immunoblotting for Cytochrome c and mitoHsp70.

[6] = only at the highest concentration assayed, 25 µM, 5 min
[7] = long versus short α5 peptide, 0.2 µM
[8] = 10 µM peptide, 5 min incubation, 30°C, Western blot of supernatant and pellet

With “EKEKTMLVLALLLAKKVASH [BID-α6, first helix (α6) of the central hairpin of BID]” the “final increase of surface pressure πmax (insertion), in words” value (from here on “final increase of surface pressure πmax”) [1] was “higher than the one of the BH3 peptides” and the “incubation time at which the mitochondrial pool of cytochrome c is depleted” value ([2]; 10 µM peptide, 30°C, Western blot) was 1 h.

For “VPQDASTKKLSECEKRIGNELDSNMELQR [BAX-BH3m, BAX BH3 mutant harboring substitutions (L63E/D68N)]”, the “cytochrome c release, in words” value ([3]; even at 100 µM (data not shown)) was “failed to induce cytochrome c release”.

In the case of “AREVIPMAAVKQALREAGDEFELRYRRAF [BCLX-BH3, peptide corresponding to the BH3 domain of BCL-xL]”, the “cytochrome c release, in words” value ([3]; BH3 peptides, dose-response, Figure 7C) was “no cytochrome c release” and the “effect on isolated mitochondria, in words” value (“effect” for short) [3] was “lack of effect”.

With “EQIMKTGAFLLQGFIQDRAGRW [BAX-α1, control peptide, first helix localized at the N-terminus of BAX, reference compound]” the “Δπ in POPC/DOPE monolayers” value [4] was 4 and the “Δπ in POPC/DOPE/CL monolayers” value [4] was 3.4.

In the case of “VLVSRIAAWMATYLNDHLEPWIQE [BCLX-α6, second helix (α6) of the central hairpin of BCL-xL]”, the “final increase of surface pressure πmax” value [1] was “higher than the one of the BH3 peptides”, the “initial velocity of surface pressure increase Vi (affinity), in words” value [1] was “strong” and the “cytochrome c release, in words” value [2, 6] was “release of large amounts of cytochrome c”.

In the case of “NWGVVKALFYFASVLRLKALSTKVPELIR [BAX-α5MS]”, the “kinetics of cytochrome c release, in words” value ([5]; mitochondria from MEF and MEF DKO, relative to BAX-α5M) was “increased lag time and a decreased rate of cytochrome c release” and the “final increase of surface pressure πmax” value [1] was “reduced surface pressure compared to BAX-α5M”.

For “DGNFNWGRVVALFYFASKLVLKALSTKVPELIRT [BAX-α5L, long version of BAX helix α5, extended at both ends]”, the “final increase of surface pressure πmax” value [1] was “much lower value”, the “surface pressure compared to BAX-α5S” value [1, 7] was “about half” and the “cytochrome c release, in words” value [2, 8] was “some residual cytochrome c was still present in the mitochondrial pellet”.

For “TARWKKWGFQPRLKEQEGDVARDSQR [BCL2L10-LAAS, control peptide, connecting region between predicted α5-α6 helices of BCL2L10 (Long Amino Acid Stretch), reference compound]”, the “Δπ in POPC/DOPE monolayers” value [4] was 3.4 and the “Δπ in POPC/DOPE/CL monolayers” value [4] was 5.5.

In the case of “WGRIVAFFSFGGALSVESVDK [BCLX-α5S, short peptide of helix α5 of BCL-xL]”, the “final increase of surface pressure πmax” value [1] was “lowest increase of surface pressure”, the “initial velocity of surface pressure increase Vi (affinity), in words” value [1] was “strong” and the “effect” value [3] was “lack of effect”. The “cytochrome c release, in words” value ([2]; all doses and times tested (2.5, 10 or 25 µM)) was “completely failed to release cytochrome c”.

With “RDGVNWGRIVAFFSFGGALSVESVDKEMQVLVSR [BCLX-α5L, long version of helix α5 of BCL-xL]” the “final increase of surface pressure πmax” value [1] was “higher than the one of the BH3 peptides”, the “increase in surface pressure compared to BCLX-α5S” value [1, 7] was about 5 fold and the “cytochrome c release, in words” value [2, 6] was “release of large amounts of cytochrome c”.

With “VPQDASTKKLSECLKRIGDELDSNMELQR [BAX-BH3, peptide corresponding to the BH3 domain of BAX]” the “concentration at which cytochrome c release starts” value ([3]; BH3 peptides, Figure 7C) was 25 µM.

For “ELIRTIMGWTLDFLRERLLVWIQD [BAX-α6, second helix (α6) of the central hairpin of BAX]”, the “final increase of surface pressure πmax” value [1] was “highest increases in surface pressure” and the “cytochrome c release, in words” value [2, 8] was “complete depletion of all mitochondrial cytochrome c”.

In the case of “SLLRDVFHTTVNFINQANLRTYVR [BID-α7, second helix (α7) of the central hairpin of BID]”, the “final increase of surface pressure πmax” value [1] was “lowest increase of surface pressure” and the “effect” value [3] was “lack of effect”.

For NWGRVVALFYFASKLVLKALSTKVPELIR [BAX-α5M], the “cytochrome c release, in words” value ([5]; mitochondria from MEF DKO) was “Cytochrome c release also occurred” and the “initial velocity of surface pressure increase Vi (affinity), in words” value [1] was “slightly smaller”.

With “ESQEDIIRNIARHLAQVGDSMDRSIPPGL [BID-BH3, peptide corresponding to the BH3 domain of BID]” the “initial velocity of surface pressure increase Vi (affinity), in words” value [1] was “strong” and the “concentration at which cytochrome c release starts” value ([3]; BH3 peptides, Figure 7C) was 25 µM.
